From US20260335294A1, “TREATING CONGENITAL DISORDERS OF GLYCOSYLATION” (Mayo Foundation for Medical Education and Research, priority 2022, published 2026)
Entries after “also recorded” stand apart in the source; their conditions may differ.

Legend:
[1] = system: PMM2-CDG and healthy fibroblasts; experiment: Metabolomic profiling (LC/MS, GC/MS) of fibroblasts treated with epalrestat; assay type: cell-based, human
Method: Patient (P1-P6) and control fibroblasts were obtained by a skin punch biopsy. Fibroblasts were maintained in low glucose DMEM (Gibco) supplemented with 10% FBS in an incubator at 37 °C, 5% CO2, no longer than two months or until they reached passage 15 to avoid senescence. Routine mycoplasma testing was performed.
Briefly, 15,000 fibroblasts were plated in 1.5 mL DMEM (Gibco, 5.5 mM glucose, 2 mM glutamine, 10% FBS) per well in two 6-well plates. The medium change was performed on day 2 and day 4. On day 6, the medium was removed, cells were washed with ice-cold 0.9% NaCl (Sigma) (physiological solution) and 250 μL of extraction buffer (80% MeOH, IS) was added to the cells. Next, cells were scraped and the cell extracts transferred to 1.5 mL Eppendorf tubes and placed overnight at −80 °C. Next, samples were centrifuged at 15,000 rpm, 4 °C, 20 minutes. The supernatant was transferred to a vial for direct analysis by LC/MS, while 100 μL of 200 mM NaOH was added to the (protein) pellet. Pellets were incubated at 95 °C for 30 minutes after which they were centrifuged at 5,000 rpm, 4 °C, 10 minutes. Supernatant was used to determine protein concentration by BCA protein assay kit (Pierce).
Fibroblasts were plated in 6-well plates for LC/MS and T75 flasks for GC/MS analysis as described above. After 24 hours, medium was removed and cells washed with PBS. Then, DMEM containing 5.5 mM glucose, 2 mM glutamine, and 10% dialyzed FBS was added. Epalrestat was freshly prepared and fibroblasts were supplemented with 10 μM epalrestat daily. After 48 hours media was changed, and 48 hours after that, metabolites were extracted and measured by both LC/MS and GC/MS. Zebrafish embryos were genotyped at 2 days post fertilization (dpf), and were treated by adding the epalrestat (solubilized in DMSO) directly into the embryo media at 5 dpf. Control embryos were similarly treated with DMSO alone. Embryos were harvested for metabolic analyses 24 hours posttreatment. The final concentration of DMSO was equivalent between control and treatment, never exceeding 0.5%.
An ion-pairing liquid chromatography column (C18) was used to separate 10 μL of sample, after which the metabolites were resolved on a Thermo Fisher Q-Exactive Hybrid Quadrupole-Orbitrap Mass Spectrometer (negative ion mode). The ESI settings were as follows: 50 sheet gas flow rate, auxiliary gas flow rate 15, spray voltage of 4 kV, S-lens RF level of 60, and the capillary temperature at 350 °C. A full scan (resolution 140,000 at 200 m/z, AGC at 3 e6, 512 ms ion fill time, and 70-850 m/z scan range) was performed. The metabolites were identified according to their elution time and m/z ratios by using in-house metabolite standard library and El-Maven v0. 12.0/Polly™ Labeled LC-MS Workflow or Thermo Fisher Xcalibur software. The correction of naturally occurring carbon isotopes was also performed. Relative metabolite abundances were normalized to the internal standard and protein content.
For GC/MS measurements of hexose-P, hexose-bisphosphates, hexose and polyols, fibroblasts were cultured in a similar fashion as for LC/MS with the following adjustments: 1) an appropriate number of fibroblasts was plated in T75 flasks instead of 6-well plates to ensure the optimal amount of metabolite concentration necessary for GC/MS; 2) metabolites were extracted from cells with 2 mL 80% MeOH, IS and the supernatant was transferred to a fresh 2 mL Eppendorf tube. Standards containing metabolites of interest were prepared simultaneously and dried overnight together with cellular extracts by vacuum centrifugation at 4 °C. The following day, 20 μL of methoxyamine (MOX) (Sigma Aldrich) was added to the samples and they were incubated for 90 minutes at 37 °C. Next, 60 μL of N,O-bis(trimethylsilyl)trifluoroacetamide (TMS) (Sigma Aldrich) was added to the samples, which were then incubated at 60 °C for 30 minutes. Samples were kept overnight in a dry and cool place to allow further derivatization with TMS. […]

[2] = system: PMM; details: patient fibroblasts; cited from earlier work
[3] = 10 μM daily, patient fibroblasts

Compound: CC(/C=C1\SC(=S)N(CC(=O)O)C1=O)=C\c1ccccc1 [epalrestat]
- CMP-sialic acid abundance ([1]; 10 μM daily): increased
- UDP-HexNAc abundance ([1]; 10 μM daily): increased
- UDP-hexose abundance ([1]; 10 μM daily): increased
- glucose-1-P abundance ([1]; 10 μM daily): increased
- hexosamine-P abundance ([1]; 10 μM daily): increased
- hexose-P abundance ([1]; 10 μM daily): increased
- pentose-P abundance ([1]; 10 μM daily): increased
- sedoheptulose-7-P abundance ([1]; 10 μM daily): increased
- Glc-1,6-P2 abundance ([1]; 10 μM daily, PMM2-CDG fibroblasts): increased; also recorded: significantly increase
- mannitol abundance ([1]; 10 μM daily, intracellular): reduced in the majority of patient fibroblasts
- sorbitol abundance ([1]; 10 μM daily, intracellular): significantly reduced; also recorded: significantly decreased
- overall polyol pool ([1]; 10 μM daily, patient and control cell lines, dialyzed FBS): reduced; also recorded: significantly decreased
- GDP-mannose abundance [1, 3]: increased; also recorded: significantly increase
- man-1-P abundance [1, 3]: increased; also recorded: significantly increase
- mannose-6-P abundance [1, 3]: increased; also recorded: significantly increase
- GDP-mannose levels vs controls ([1]; patient fibroblasts, epalrestat alone): never reached the same levels as the ones seen in controls
- PMM enzymatic activity [2]: increase
